Measured values published in PubChem BioAssay AID743059 (The Scripps Research Institute Molecular Screening Center, 2013).
pEC50: −log10 of the molar value. The source made the active and inactive calls.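 Rule for the calls: active = EC50 at or below 10 µM; inactive = EC50 above 10 µM.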

Target: Nuclear hormone receptor DAF-12 (Heterodera glycines)
Assay: H. glycines DAF-12 receptor agonist potency, dose response, cell-based, luminescence, HEK293 (AID 743059)
Details: HEK293 hgDAF-12 reporter, luciferase luminescence

Compound | EC50 | pEC50
Cc1c(C(=O)OC2CCC(C)CC2)[nH]c2c1C(=O)CCC2 (stereo unspecified) | > 67.5 µM (inactive) | 
c1ccc(Nc2nc(-c3ccccc3)ns2)cc1 | > 67.6 µM (inactive) | 
O=C(NCCCn1ccnc1)c1cc(-c2cccs2)on1 |  | 5.05
CCOC(=O)c1csc(-c2sccc2Br)n1 | > 67.6 µM (inactive) | 
O=[N+]([O-])c1ccc2c(c1)Nc1nc3ccccc3nc1N2 | > 67.5 µM (inactive) | 
CN(C)CCNc1ncnc2c1ncn2[C@H]1CN(Cc2cccnc2)C[C@@H](CO)O1 | > 67.5 µM (inactive) | 
Cc1ccc2oc(-c3cccc(N)c3)nc2c1 | > 67.6 µM (inactive) | 
Nc1c(-c2cccs2)cnc2c(-c3ccc(F)cc3)cnn12 | > 67.5 µM (inactive) | 
CCOc1ccc(-c2c(=O)n(O)c3ccccc3[n+]2[O-])cc1 | inactive | 
CN(C)c1ccc2c(=O)c3ccccc3oc2n1 | > 67.6 µM (inactive) | 
N#Cc1c(Br)n(C2OC(CO)C(O)C2O)c2ncnc(N)c12 (stereo unspecified) | > 67.5 µM (inactive) | 
Cc1cc(C(=O)NC2=NCCS2)cs1 | > 67.5 µM (inactive) | 
Brc1ccc(-c2noc(-c3ccccc3)n2)o1 | > 67.6 µM (inactive) | 
CCOC(=O)c1cnc(SCc2ccccc2)nc1N | > 67.5 µM (inactive) | 
O=C(Nc1ccccc1O)c1ccc(NS(=O)(=O)c2cccc3cccnc23)cc1 |  | 5.48
CN(C)c1ccc(Nc2nc(-c3cccnc3)cs2)cc1 | > 67.5 µM (inactive) | 
Cc1cc(C(=O)NC2CCCCC2)c(C)n1-c1ccc(F)cc1 | > 67.5 µM (inactive) | 
Nc1nn(-c2cccc(F)n2)cc1-c1ccccc1 | > 67.5 µM (inactive) | 
Clc1ccc(-c2cn3cc(Cl)ccc3n2)cc1 | > 67.6 µM (inactive) | 
CCOC(=O)CSc1nc(-c2ccncc2)ccc1C#N | > 67.5 µM (inactive) | 
O=C(NC1CCC1)c1ccc(C#CC2CC2)cn1 | > 67.5 µM (inactive) | 
Cc1cc(NC(=O)CSc2nc3c(cc2C#N)CCC3)no1 | > 67.6 µM (inactive) | 
COc1ccc2[nH]c(C(=O)Nc3cccc(C)n3)cc2c1 | > 67.5 µM (inactive) | 

Compound | EC50 | pEC50
CCSCC(C)(C)n1[nH]c2ccccc2c1=O | > 67.6 µM (inactive) | 
Brc1ccc(-c2noc(-c3ccccn3)n2)o1 | > 67.5 µM (inactive) | 
O=[N+]([O-])c1cccnc1NCCNc1ncc(C(F)(F)F)cc1Cl | > 67.5 µM (inactive) | 
CCOC(=O)N1CCC(NC(=O)c2cc3ccccn3n2)CC1 | > 67.5 µM (inactive) | 
O=c1c2ccccc2nnn1CSc1ccccc1F | > 67.5 µM (inactive) | 
Cc1ccn(-c2cccc(-n3ccc(C)n3)n2)n1 | > 67.6 µM (inactive) | 
Oc1[nH]c2ccccc2c1N=Nc1ccccc1F | > 67.6 µM (inactive) | 
N/C(=N\OC(=O)c1cc(Br)ccc1Cl)c1ccccn1 | > 67.5 µM (inactive) | 
COc1ccc(Oc2cnn(-c3ccccc3)c(=O)c2Br)cc1 | > 67.5 µM (inactive) | 
Cc1csc(NC(=O)c2ccc3ccccc3n2)n1 | > 67.6 µM (inactive) | 
O=c1c2ccccc2cnn1-c1ccc2ccccc2c1 | > 67.5 µM (inactive) | 
O=C(NNCc1ccccc1)c1ccccn1 | > 67.6 µM (inactive) | 
c1ccc(CSc2ccc(-c3cccs3)nn2)cc1 | > 67.5 µM (inactive) | 
C=CCN1C=CC(=C/C=C(/C#N)C(=O)OCC)C=C1 | > 67.5 µM (inactive) | 
O=c1[nH]cnc2cc(-c3ccccc3)sc12 | > 67.5 µM (inactive) | 
CC(C)C(N)c1csc(Nc2nncc3ccccc23)n1 (stereo unspecified) | > 67.1 µM (inactive) | 
c1ccc(CCSc2nccn2-c2ccccc2)cc1 | > 67.6 µM (inactive) | 
NC(=Nc1ccccc1)NC(=O)c1nc(Cl)c(N)nc1N | > 67.5 µM (inactive) | 
Cc1ccc2c(c1)N=C(c1ccccc1)CC(C(Cl)Cl)=N2 | > 67.5 µM (inactive) | 
Cc1ccc(CN2CCN(CC(C)C)C(CCO)C2)s1 (stereo unspecified) | > 67.6 µM (inactive) | 
CCCS(=O)(=O)NCc1cn2c(C)csc2n1 | > 67.5 µM (inactive) | 
Cc1ccc(SCCN2CCC(C)CCC2=O)cc1 (stereo unspecified) | > 67.5 µM (inactive) | 
O=c1[nH]c(=O)n(C2CC(O)C(CO)O2)cc1I (stereo unspecified) | > 67.6 µM (inactive) | 

Compound | EC50 | pEC50
Cc1scc(C(=O)N/N=C/c2ccsc2)c1C | > 67.6 µM (inactive) | 
c1ccc(CN=C2Nc3ccccc3CS2)nc1 | > 67.5 µM (inactive) | 
Cc1ccc(Nc2ncccc2C(N)=O)cc1 | > 67.4 µM (inactive) | 
ON=C(CCc1ccccc1)c1ccccc1 | > 67.5 µM (inactive) | 
Clc1ccc(OCCSc2ncccn2)c(Br)c1 | > 67.5 µM (inactive) | 
Clc1ccc(Nc2nc(-c3cccs3)cs2)nc1 | > 67.5 µM (inactive) | 
CC1CCc2c(sc(NC(=O)C3=COCCO3)c2C(N)=O)C1 (stereo unspecified) | > 67.5 µM (inactive) | 
Cc1cc(C(=O)CSc2cccc[n+]2[O-])c(C)n1-c1ccccc1 | > 67.5 µM (inactive) | 
COC(=O)c1sc2nc3c(cc2c1N)CCCC3 | > 67.5 µM (inactive) | 
CC(C)Oc1cc(O)c2c(=O)c(-c3ccc(O)cc3)coc2c1 | > 67.6 µM (inactive) | 
Cc1cccc(/C(N)=N/OC(=O)c2cccs2)c1 | > 67.5 µM (inactive) | 
COCCNC(=O)/C(C#N)=C/c1cc(C)n(-c2ccc(C)cc2)c1C | > 67.5 µM (inactive) | 
Cc1cccc(NC(=O)c2ccc3ccccc3n2)c1C | > 67.5 µM (inactive) | 
COc1ccc(Nc2nccc(-c3cccc(N)c3)n2)cc1 | > 67.5 µM (inactive) | 
Cc1nc2nc(-c3cccs3)[nH]c2cc1Br | > 67.5 µM (inactive) | 
Clc1cccc(-c2nnc(-c3ccccc3)o2)c1 | > 67.5 µM (inactive) | 
CCOC(=O)c1cnc(SCCc2ccccc2)nc1N | > 67.5 µM (inactive) | 
N=C1c2ccccc2CN1CC(=O)c1ccccc1 | > 67.6 µM (inactive) | 
Fc1ccc(-n2nnc(-c3cccnc3Cl)n2)cc1 | > 67.5 µM (inactive) | 
Clc1ccc(CSc2nc3ccncc3[nH]2)cc1 | > 67.5 µM (inactive) | 
COc1ccc2oc(C(=O)Nc3nccs3)c(C)c2c1 | > 67.5 µM (inactive) | 
Nc1c2c(nc3sc4c(c13)CCCC4)CCCCC2 | > 67.6 µM (inactive) | 
N=C1/C(=C/c2ccc(OCc3ccccc3F)cc2)C(=O)N=C2SC(CC(=O)N3CCOCC3)=NN12 | > 67.5 µM (inactive) | 

Compound | EC50 | pEC50
Cc1cc(OCc2cc(C(=O)NCc3cc(C(C)C)no3)no2)cc(C)c1Cl | > 67.5 µM (inactive) | 
Cc1c(C(=O)Nc2nccs2)oc2ccccc12 | > 67.6 µM (inactive) | 
Cc1ccc(OCc2ccc(Br)cc2)c([N+](=O)[O-])n1 | > 67.5 µM (inactive) | 
c1ccc(Nc2nc(-c3cccnc3)cs2)nc1 | > 67.6 µM (inactive) | 
CC(C)C[C@H](NC(=O)OCC1c2ccccc2-c2ccccc21)C(=O)O | > 67.5 µM (inactive) | 
Cc1ccc(-c2csc(NC(=O)/C=C/c3ccco3)c2C(=O)O)cc1 | > 67.6 µM (inactive) | 
Cc1ccc(N/C=C(/C#N)c2ccsc2)cc1C | > 67.5 µM (inactive) | 
Cc1ccc(Nc2ncccc2C(N)=O)cc1[N+](=O)[O-] | > 67.6 µM (inactive) | 
CCCCSc1ncnc2c1ncn2C1CCCCO1 (stereo unspecified) | > 67.4 µM (inactive) | 
C(=C\n1nnc2ccccc21)/c1ccccn1 | > 67.5 µM (inactive) | 
Oc1cccc(/C=C/c2ccc3cccc(O)c3n2)c1 | > 67.6 µM (inactive) | 
Fc1ccccc1CSc1ncnc2c1ncn2C1CCCCO1 (stereo unspecified) | > 67.6 µM (inactive) | 
Clc1ccccc1Nc1nnc(-c2ccncc2)s1 | > 67.5 µM (inactive) | 
CN1CCN(/C=N/c2sc3c(c2C#N)CCCCC3)CC1 | > 67.5 µM (inactive) | 
Cc1ccsc1/C=N/NC(=O)c1sccc1C | > 67.5 µM (inactive) | 
N#Cc1c(N)nc(N)nc1Nc1ccc(Br)cc1 | > 67.4 µM (inactive) | 
Cc1cc2nc(-c3cccnc3SCC(=O)NCc3ccco3)[nH]c2cc1C | > 67.6 µM (inactive) | 
Cc1cnc(NC(=O)COc2ccc3c(c2)CCC3)s1 | > 67.6 µM (inactive) | 
Cc1ccc(/C=N/NC(=O)c2ccccn2)s1 | > 67.6 µM (inactive) | 
Cc1ccc(/C(N)=N/OC(=O)c2cccs2)cc1 | > 67.6 µM (inactive) | 
O=c1c2ccccc2nnn1CCc1ccccc1 | > 67.4 µM (inactive) | 
CN(C)c1cccc(-c2cnc(N3CCC(C(N)=O)CC3)s2)c1 | > 67.5 µM (inactive) | 
Oc1ccc(N=Nc2ccc3ccccc3c2)cc1 | > 67.5 µM (inactive) | 

Compound | EC50 | pEC50
COC1=C/C(=C/c2c(O)c(C#N)c3ccccn23)C=CC1=O | > 67.5 µM (inactive) | 
C/C(=C\C(=O)c1sccc1Cl)N(C)C | > 67.6 µM (inactive) | 
O=C(Nc1ccccn1)c1csc2c1CCCC2 | > 67.5 µM (inactive) | 
COC1=C/C(=C/c2c(N)n3nc(-c4ccc(C)cc4)sc3nc2=O)C=CC1=O | > 67.5 µM (inactive) | 
Cc1cc(C)nc(-n2nc(C)c(Sc3ccc(F)cc3)c2N)n1 | > 67.5 µM (inactive) | 
COc1cccc(-c2nc3ccccc3s2)c1 | > 67.5 µM (inactive) | 
COC(=O)C1C(=O)c2c([nH]c(C(=O)OC3CCCCC3)c2C)CC1C (stereo unspecified) | > 67.5 µM (inactive) | 
Cc1cccc(/C=C\c2nc3ccccc3c(=O)[nH]2)c1 | > 67.5 µM (inactive) | 
CC(=Nc1ccccc1)c1sc2ccccc2c1O | > 67.6 µM (inactive) | 
O=C(O)c1cc(-c2cccs2)[nH]n1 | > 67.6 µM (inactive) | 
O=C(/C=C/c1ccccc1)N1CCC(c2ccccc2)C1 (stereo unspecified) | > 67.5 µM (inactive) | 
CN(C)c1ccc(C(C#N)c2ccccc2)nn1 (stereo unspecified) | > 67.5 µM (inactive) | 
Cc1cc(N=Nc2ccc3ccccc3c2)ccc1O | > 67.6 µM (inactive) | 
Nc1ccc2c(c1)Cc1cc(N)c(Cl)cc1-2 | > 67.4 µM (inactive) | 
Cn1c(NC(=O)CCc2ccccc2)cc(=O)n(C)c1=O | > 67.5 µM (inactive) | 
O=C(Nc1ncccc1O)c1ccc(C(=O)c2ccccc2)cc1 |  | 5.34
O=C(N/N=C/c1cccs1)c1n[nH]c2c1CCC2 | > 67.5 µM (inactive) | 
Cc1nn(-c2ccccc2)c(Cl)c1/C=N/Nc1ccc(Cl)c(C(=O)O)c1 | > 67.5 µM (inactive) | 
C#CCNC(=O)C[C@H]1C[C@@]2(C(=O)OC)C(=C[C@H](C(C)C)O[C@@H]2C2CC2)N(CCCCCCCC)C1=O | > 67.5 µM (inactive) | 
